Like-named read-outs stand apart in the source and are kept apart here. Marks after values point to notes of the source that are not given here.
Legend:
[1] = tested on: gerbil model with global ischemia reperfusion injury; assay: Neurobehavioral scores of acute cerebral ischemia reperfusion model; format: in vivo; conditions: positive control group, dose not given; ischemic model group 3.1+/−0.32
From the text: Taking N-stearoyl amino acid potassium NsTyr-2K as an example, a gerbil model with global ischemia reperfusion injury was used to assess the protective role of NsTyr-2K against neurobehavioral disorder caused by cerebral ischemia-reperfusion injury by examining the changing behavioral indexes such as spatial, learning and cognitive functions in the perspective of overall animals during passive dark avoidance test and Morris water maze test.

[2] = Equilibrium solubility, shake-flask method; format: physicochemical
Description: (§1) The shake-flask method was used to test the equilibrium solubility of NsTyr, NsTyr-2K, NsTyr-2Na in water at 37° C. […] The apparent lipid-water distribution coefficient log p of NsTyr-2K, NsTyr-2Na was respectively 1.512 and 1.477. Under different pHs, see Table 1 for the equilibrium solubility test data of NsTyr-2K, NsTyr-2Na; and see Table 2 for the apparent lipid-water distribution coefficient of NsTyr-2K and NsTyr-2Na.

[3] = Absorption kinetics after intragastric administration; format: in vivo; conditions: both sexes, Sprague-Dawley (SD), rat, blood; SD rats, oral 200 mg/kg
Description: Ten SD rats weighing 150-180 g were randomly divided into two groups, each comprising five, with males and females combined. After intragastric administration of 200 mg/kg of saline solution containing NsTyr and NsTyr-2K, the average blood concentration-time curve thereof was respectively shown in FIG. 2.

obese mouse model [4] = assay: H&E staining of fat and liver tissue of obese mice; format: in vivo, C57BL/6 mice
Description: 2. Method: Epididymal fat and liver were fixed in 10% neutral formaldehyde solution for 48 h. After paraffin embedding they were made into […] of slices, and stained with hematoxylin-eosin (H&E staining). Light microscope was used to observe the size of fat cells, the structure of liver cells and adipose accumulation.

obese mouse model [5] = assay: Collection and observation of fat and liver tissues of obese mice; format: in vivo, C57BL/6 mice; conditions: 100 mg/kg/day
From the text: 2. Method: After administration test in Embodiment 8, the mice were denied food overnight. Their abdominal cavity was opened to observe abdominal fat content in each group of the mice. Epididymal fat, perirenal fat and liver were separated and weighed.

obese mouse model [6] = assay: Administration test in obese mouse model (weight, food intake); format: in vivo, C57BL/6 mice
Description: 2. Method: 60 C57BL/6 mice (aged 3 weeks, male, with a weight of 8.3 g each) were adaptively fed with 12% kcal normal diet for one week, and randomly divided into 6 groups, each consisting of 10 mice. One group (ND) continued to be fed with normal diet, the rest five groups (HFD I˜V) were fed with 45% kcal high-fat diet.
In the whole test process the mice kept raised in the following environment: temperature: 23±3° C.; humidity: 50±5%; bright and dim alternating cycle: 12 h/12 h; freely available to diet and drinking water in the whole process.
2. Method: ND and HFD I were respectively taken as normal and high-fat diet blank control groups, and were treated with 0.5% sodium carboxymethyl cellulose solution (5 ml/kg/day); HFD II˜IV were taken as groups of recipients, and were treated with NST-2K (20, 60, 100 mg/kg/day); HFD V was taken as a positive control group, and treated with Orlistat (100 mg/kg/day). All the above drugs dissolved in aqueous solution of 0.5% sodium carboxymethyl cellulose and were administered. The administration remained four weeks. In each week average weight and food intake were kept in record until the phase of administration ended.

[7] = Stability assessment (influencing factors, acceleration and long-term tests, Chinese Pharmacopoeia 2010); format: physicochemical; conditions: high temperature, high humidity, strong light
Description: Considering that prototype drug stearoyl amino acid tend to absorb moisture, cake and become yellowish during long-term storage, the stearoyl amino acid is now converted into a form of active salt thereof. And the stability of NsTyr-2K and NsTyr-2Na was tested as required for bulk pharmaceutical chemicals according to the People's Republic of China Pharmacopoeia 2010.

[8] = tested on: APP/PS1/TAU transgenic mice; assay: High plus maze test; format: in vivo; conditions: different doses
From the text: (§2) Materials for high plus maze: consisting of two opening arms opposite to each other and two closing arms opposite to each other, a central platform connecting the aforesaid arms, and a short, 1-cm-high damper along the edges of the opening arms (to prevent animals from slipping off the maze in the process of exploring), with the floors of the four arms and the central platform being black; the floor of the maze adjusted to be 50 cm away from the laboratory ground; and an ethological computer image analysis system (SHANGHAI MOBILEDATUM TECH INFORMATION CO. LTD).
(§3) Laboratory animals: C57BL/6I (from Jackson Lab) (APP/PS1/TAU transgenic mice) in C57BL/6J (TAU transgenic mice). All APP/PS1/TAU transgenic mice and TAU transgenic mice belong to the mouse disease model as for Alzheimer's disease.
(§4) Principles: With a couple of opening arms and another couple of closing arms, the high plus maze is useful for assessment of animal anxiety by taking advantage of animal tendency to explore a new extraneous environment as well as their fear of high and open extending arms, which form a behavioral conflict. Rodents tend to move within closing arms due to their fondness of dark, but will, out of curiosity, go into opening arms and move around there. When stimulated by a novel environment, they will engender an impulse to explore and a fear at the same time.

TAU transgenic mice [9] = assay: High plus maze test; format: in vivo
From the text: as §2, §3, §4

[10] = Apparent lipid-water distribution coefficient; format: physicochemical
Description: as §1

[11] = tested on: APP/PS1/TAU transgenic mice; assay: Open-field test; format: in vivo
From the text: (§5) Materials for open-field test: a spontaneous activity watch box (80×80×30), on top of which is furnished with a fluorescent lamp as a lighting system, and on the center of whose roof is a CCD camera connected to the computer; and an ethological computer image analysis system (SHANGHAI MOBILEDATUM TECH INFORMATION CO. LTD).
as §3
(§6) [1] Priscila Cagni, Mrilia Barros. Cannabinoid type I receptor ligands WIN 55,212-2 and AM251 alter anxiety-like behaviors of marmoset monkeys in an open-field test. Behavioural Brain Research 2013; 240:91-94.
(§7) Principles: Open-field test is useful for evaluation of mouse anxiety and behavior probing the outside world. By nature mice are capable of both exploring the unknown territory and protecting themselves from damage due to external potential risks. Open-field test, therefore, can test such mouse capabilities by recording their duration of stay at the marginal area and the central area (where anxiety occurs) in an open field. Meanwhile, the test as such can also measure mouse movement capabilities such as speed.

TAU transgenic mice [12] = assay: Open-field test; format: in vivo; conditions: medium-dose (30 mg/kg) and high-dose (45 mg/kg)
From the text: as §5, §3, §6, §7

[13] = tested on: APP/PS1 TAU transgenic mouse; assay: Rota rod test; format: in vivo, mice; conditions: high-dose
From the text: Materials for rota rod test: rotary rod type fatigue tester YLS-4C (SHANGHAI MOBILEDATUM TECH INFORMATION CO. LTD).
as §3
Principles: Rota rod is useful for studying the effects of drugs upon movement coordination and fatigue resistance.

[14] = tested on: APP/PS1/TAU transgenic mice; assay: Morris water maze test (place navigation and spatial probe); format: in vivo
From the text: (§8) Materials for water maze test: a constant-temperature swimming pool, a platform for mice, and an ethological computer image analysis system (SHANGHAI MOBILEDATUM TECH INFORMATION CO. LTD).
as §3
(§9) Principles: Morris water maze test programs comprise two parts: place navigation test and spatial probe test. The former lasted a few days; each day mice were respectively put into water from four entries several times, and the time they spent seeking the platform hidden underwater (escape latency) was recorded. When place navigation test ended, the platform was removed. The latter recorded the mouse swimming trajectory after the mice were put into water from any chosen entry, and assessed their previous memory of the platform.

TAU transgenic mice [15] = assay: as above; format: in vivo
From the text: as §8, §3, §9

[16] = day 5, medium-dose and high-dose group, *P<0.05

## COCCOC(=O)C1=C(C)NC(C)=C(C(=O)OC(C)C)C1c1cccc([N+](=O)[O-])c1 (stereo not drawn) [nimotop, reference compound]
[1]
  neurobehavioral score: 1.12+/−0.31

## CCCCCCCCCCCCCCCCCC(=O)N[C@@H](Cc1ccc(O)cc1)C(=O)O [NsTyr, N-stearoyl tyrosine]
[2]; thermodynamic from solid, water, 37° C., read-out: equilibrium solubility in water
  solubility thermodynamic: < 1000 µg/mL
[3]
  AUC(0-inf): 140 ng·h/mL
  AUC(0-t): 130 ng·h/mL
  Cmax: 110 ng/mL
  MRT last: 1.38 h
  Tmax: 0.75 h
  half-life: 1.49 h

## CCCCCCCCCCC[C@@H](C[C@@H]1OC(=O)[C@H]1CCCCCC)OC(=O)[C@H](CC(C)C)NC=O [Orlistat, reference compound]
Obese mouse model [4]; HFD III, HFD IV (NST-2K 60, 100 mg/kg/day) and HFD V (Orlistat 100 mg/kg/day) vs HFD I
  size of epididymal fat cells: evidently smaller fat cells than HFD I
Obese mouse model [4]; as the administration dose increased, vs HFD I
  fat accumulation in liver tissues: the accumulation began to ease
Obese mouse model [5]; HFD I blank 1.63 ± 0.10
  perirenal fat percentage quality: 1.32 ± 0.06 g/100 g weight
Obese mouse model [5]; HFD I blank 2.99 ± 0.08
  Epididymal fat percentage quality: 2.66 ± 0.07 g/100 g weight
Obese mouse model [5]; HFD I blank 3.51 ± 0.07
  Liver percentage quality: 3.48 ± 0.06***^ g/100 g weight
Obese mouse model [6]; 100 mg/kg/day, four weeks
  obese mouse weight: can inhibit weight gain in obese mice
Obese mouse model [6]; 4-week administration, high-fat diet groups
  appetite (average daily food intake): neither NST-2K nor Orlistat suppressed appetite

## CCCCCCCCCCCCCCCCCC(=O)N[C@@H](Cc1ccc(O)cc1)C(=O)[O-].CCCCCCCCCCCCCCCCCC(=O)N[C@@H](Cc1ccc(O)cc1)C(=O)[O-].[Na+].[Na+] [NsTyr-2Na]
[7]
  stability: stable properties
[8]
  low anxiety state: did not change
TAU transgenic mice [9]; different doses
  low-anxiety state: the low-anxiety state was changed
TAU transgenic mice [9]; high-dose, compared with the animal model group
  low-anxiety state: significant difference
[2]; pH 2.0
  Equilibrium solubility in buffer solution: 66.938 µg/mL
[2]; pH 3.0
  Equilibrium solubility in buffer solution: 66.334 µg/mL
[2]; pH 4.0
  Equilibrium solubility in buffer solution: 195.371 µg/mL
[2]; pH 5.0
  Equilibrium solubility in buffer solution: 232.102 µg/mL
[2]; pH 6.0
  Equilibrium solubility in buffer solution: 274.629 µg/mL
[2]; pH 7.0
  Equilibrium solubility in buffer solution: 318.016 µg/mL
[2]; pH 7.4
  Equilibrium solubility in buffer solution: 374.484 µg/mL
[2]; pH 8.0
  Equilibrium solubility in buffer solution: 463.902 µg/mL
[2]; pH 9.0
  Equilibrium solubility in buffer solution: 512.644 µg/mL
[10]
  Apparent lipid-water distribution coefficient LogP: 1.477
[10]; buffer pH 2.0
  Apparent lipid-water distribution coefficient Ko/w: 49.913
  Apparent lipid-water distribution coefficient LogP: 1.698
[10]; buffer pH 3.0
  Apparent lipid-water distribution coefficient Ko/w: 28.980
  Apparent lipid-water distribution coefficient LogP: 1.462
[10]; buffer pH 4.0
  Apparent lipid-water distribution coefficient Ko/w: 15.224
  Apparent lipid-water distribution coefficient LogP: 1.183
[10]; buffer pH 5.0
  Apparent lipid-water distribution coefficient Ko/w: 18.710
  Apparent lipid-water distribution coefficient LogP: 1.272
[10]; buffer pH 6.0
  Apparent lipid-water distribution coefficient Ko/w: 19.963
  Apparent lipid-water distribution coefficient LogP: 1.300
[10]; buffer pH 7.0
  Apparent lipid-water distribution coefficient Ko/w: 31.436
  Apparent lipid-water distribution coefficient LogP: 1.497
[10]; buffer pH 7.4
  Apparent lipid-water distribution coefficient Ko/w: 29.286
  Apparent lipid-water distribution coefficient LogP: 1.467
[10]; buffer pH 8.0
  Apparent lipid-water distribution coefficient Ko/w: 28.704
  Apparent lipid-water distribution coefficient LogP: 1.458
[10]; buffer pH 9.0
  Apparent lipid-water distribution coefficient Ko/w: 21.872
  Apparent lipid-water distribution coefficient LogP: 1.340
[11]; 15, 30, 45 mg/kg
  duration of stay at the central activity area: could not be changed
[11]; high-dose 45 mg/kg
  mouse journey: could increase mouse journey
TAU transgenic mice [12]
  duration of stay in the central area: reduce their duration of stay in the central area
  movement ability (journey): could enhance transgenic mouse movement ability
[13]
  movement coordination: could obviously improve the phenomenon
[14]; day 4, dosing group vs model group
  latency in place navigation test: no significant difference
[14]; [16]
  latency in place navigation test: significant difference
[14]; day 5, platform removed, high-dose group
  swimming time percentage in the third quadrant (probe test): statistical significance
[14]; spatial probe test
  spatial probing (swimming trajectory, FIG. 11): only the high-dose group could enhance their spatial probing
TAU transgenic mice [15]; day 4, high-dose group vs model group
  latency in place navigation test: significant difference
TAU transgenic mice [15]; [16]
  latency in place navigation test: significant difference
TAU transgenic mice [15]; day 5, platform removed, medium-dose and high-dose group
  swimming time percentage in the third quadrant (probe test): statistical significance
TAU transgenic mice [15]; spatial probe test
  spatial probing (swimming trajectory, FIG. 11): both the medium- and high-dose groups could improve their spatial probing
